According to patent publication US20110196000A1, “Use of succinate dehydrogenase (SDH) inhibitors in the treatment of plant species from the family of the true grasses” (Bayer CropScience AG, priority 2010, published 2011):

Columns and labels:
Type in all cases: in vivo
[1] = system: infection-free wheat plants of the cultivar Passat; assay: Glasshouse trial: gas exchange activity of wheat ears; settings: development stage BBCH 75
Description: (§1) In a glasshouse trial under controlled conditions, the effect of bixafen was investigated on the physiology, morphology and abiotic stress tolerance of infection-free wheat plants of the cultivar […] plants were grown in 10-litre containers over a period of 4 months. The substrate used was standard earth type ED 73 (Fröndenberg, Germany)+C-Horizont+Sand (4:2:1). The supply of nutrient to the plants took place by feeding with a 0.2% strength Flory 2 liquid fertilizer solution (from Euflor, Munich) once every two weeks. The plants were supplied with water as required. In each component of the trial, 10 repetitions were carried out.

[2] = system: wheat variety Ritmo; assay: Plot trial in Germany: green leaf area by visual scoring; settings: sprays at BBCH 39 and 59
Description: In Germany a plot trial was set up with the wheat variety Ritmo in order to investigate the effect of bixafen on the physiology, morphology and abiotic stress tolerance of wheat plants under realistic agricultural conditions. The products under test were applied to the plants, in the form of sequential spray sequences (BBCH 39 and 59). The spray volume was 400 l of water per hectare. In each trial component, 5 repetitions were carried out. [table] The duration of green coloration of the leaf area was captured by regular visual scoring of the fraction of green leaf area.

[3] = system: infection-free wheat plants of the cultivar Passat; assay: Glasshouse trial: yield components; settings: glasshouse, sprays at BBCH 39 and 59
[4] = system: infection-free wheat plants of the cultivar Passat; assay: Glasshouse trial: time of heading (ear emergence); parameters: time of heading of wheat (ears emerged): unit not given here
Description: as §1

[5] = system: infection-free wheat plants of the cultivar Passat; assay: Glasshouse trial: size of the flag leaf; settings: at BBCH 83-85
Description: (§2) In a glasshouse trial under controlled conditions, the effect of bixafen was investigated on the physiology, morphology and abiotic stress tolerance of infection-free wheat plants of the cultivar […] plants were grown in 10-litre containers over a period of 4 months. The substrate used was standard earth type ED 73 (Fröndenberg, Germany)+C-Horizont+Sand (4:2:1). The supply of nutrient to the plants took place by feeding with a 0.2% strength Flory 2 liquid fertilizer solution (from Euflor, Munich) once every two weeks. The plants were supplied with water as required. In each component of the trial, 10 repetitions were carried out. To prevent infestation with powdery mildew, Proquinazid (Talius® was applied once. The incidence of aphids and spider mites was avoided by treatments with Karate®, Bulldock® and Sumicidin®. The products under test were applied to the plants, in the form of sequential spray sequences (BBCH 39 and 59). The spray volume was 300 l of water per hectare. [table] Morphological parameters measured, additionally, were the length and width, i.e. the size of the flag leaf. This was greatest with the succinate dehydrogenase (SDH) inhibitor bixafen, in comparison to the other comparison fungicides.

[6] = system: infection-free wheat plants of the cultivar Passat; assay: Glasshouse trial: green leaf area by visual scoring; settings: glasshouse
Description: as §2, with “The duration” for “Morphological parameters measured, additionally, were the length and width, i.e. the size”, “green coloration of the leaf area” for “flag leaf. This”, “captured on” for “greatest with”, “basis of regular visual scoring of” for “succinate dehydrogenase (SDH) inhibitor bixafen, in comparison to”, “fraction of the green leaf area.” for “other comparison fungicides.”

[7] = system: wheat variety Ritmo; assay: Plot trial: yield components; settings: sprays at BBCH 39 and 59
[8] = system: wheat variety Ritmo; assay: Plot trial: chlorophyll content of leaves (pigment extraction method of Ziegler and Ehle)
[9] = system: infection-free wheat plants of the cultivar Passat; assay: Glasshouse trial: temperature of ears and leaves as measure of transpiration activity
Description: as §1

[10] = 7 days after second fungicide application
[11] = 14 days after second fungicide application
[12] = 21 days after second fungicide application
[13] = 28 days after second fungicide application
[14] = 35 days after second fungicide application
[15] = 42 days after second fungicide application
[16] = 68 days after second fungicide application (so in the source)
[17] = 75 days after second fungicide application (so in the source)
[18] = 82 days after second fungicide application (so in the source)
[19] = 89 days after second fungicide application (so in the source)
[20] = 96 days after second fungicide application (so in the source)
[21] = 103 days after second fungicide application (so in the source)
[22] = 110 days after second fungicide application (so in the source)
[23] = 117 days after second fungicide application (so in the source)

CO/N=C(/C1=NOCCO1)c1ccccc1Oc1ncnc(Oc2ccccc2Cl)c1F [Fluoxastrobin]
Photosynthesis (gas exchange activity of wheat ears) [1]: −2.44 a CO2 per ear | Respiration (gas exchange activity of wheat ears) [1]: 2.96 b CO2 per ear | green leaf area of the flag leaf [2, 10]: 98.7 % leaf area | green leaf area of the second-from-top leaf (F-1) [2, 10]: 98.8 % leaf area | green leaf area of the third-from-top leaf (F-2) [2, 10]: 96.3 % leaf area | green leaf area of the flag leaf [2, 11]: 98.7 % leaf area | green leaf area of the second-from-top leaf (F-1) [2, 11]: 98.0 % leaf area | green leaf area of the third-from-top leaf (F-2) [2, 11]: 95.5 % leaf area | green leaf area of the flag leaf [2, 12]: 98.3 % leaf area | green leaf area of the second-from-top leaf (F-1) [2, 12]: 96.1 % leaf area | green leaf area of the third-from-top leaf (F-2) [2, 12]: 92.1 % leaf area | green leaf area of the flag leaf [2, 13]: 95.8 % leaf area | green leaf area of the second-from-top leaf (F-1) [2, 13]: 93.5 % leaf area | green leaf area of the third-from-top leaf (F-2) [2, 13]: 88.5 % leaf area | green leaf area of the flag leaf [2, 14]: 63.0 % leaf area | green leaf area of the second-from-top leaf (F-1) [2, 14]: 47.0 % leaf area | green leaf area of the third-from-top leaf (F-2) [2, 14]: 31.5 % leaf area | green leaf area of the flag leaf [2, 15]: 23.7 % leaf area | green leaf area of the second-from-top leaf (F-1) [2, 15]: 9.8 % leaf area | green leaf area of the third-from-top leaf (F-2) [2, 15]: 1.9 % leaf area | green leaf area of the second-from-top leaf (F-1) ([2]; 49 days after second fungicide application): 0 % leaf area | Ears/pot [3]: 41.0 | Harvest Index [3]: 29.0% | Kernels/ear [3]: 21.9 | Straw [3]: 74.5 g/pot | TKM (thousand-kernel mass) [3]: 34.3 g | Yield [3]: 30.5 g/pot | time of heading of wheat (ears emerged) ([4]; 45 days after sowing): 11.4 | time of heading of wheat (ears emerged) ([4]; 50 days after sowing): 33.1 | time of heading of wheat (ears emerged) ([4]; 55 days after sowing): 43.8 | time of heading of wheat (ears emerged) ([4]; 60 days after sowing): 49.9 | time of heading of wheat (ears emerged) ([4]; 65 days after sowing): 61.1 | time of heading of wheat (ears emerged) ([4]; 70 days after sowing): 76.4 | time of heading of wheat (ears emerged) ([4]; 75 days after sowing): 87.8 | time of heading of wheat (ears emerged) ([4]; 80 days after sowing): 93.1 | time of heading of wheat (ears emerged) ([4]; 85 days after sowing): 97.1 | Length of the flag leaf [5]: 25.6 cm | Width of the flag leaf [5]: 1.4 cm | Area of the flag leaf ([5]; calculated using the formula A = 0.67 × length × width): 24.01 cm^2 | Area [rel.] of the flag leaf ([5]; untreated = 100): 110 rel. | green leaf area of the flag leaf (F) [6, 16]: 100 % leaf area | green leaf area of the second-from-top leaf (F-1) [6, 16]: 100 % leaf area | green leaf area of the third-from-top leaf (F-2) [6, 16]: 100 % leaf area | green leaf area of the flag leaf (F) [6, 17]: 100 % leaf area | green leaf area of the second-from-top leaf (F-1) [6, 17]: 100 % leaf area | green leaf area of the third-from-top leaf (F-2) [6, 17]: 95 % leaf area | green leaf area of the flag leaf (F) [6, 18]: 100 % leaf area | green leaf area of the second-from-top leaf (F-1) [6, 18]: 95 % leaf area | green leaf area of the third-from-top leaf (F-2) [6, 18]: 82 % leaf area | green leaf area of the flag leaf (F) [6, 19]: 95 % leaf area | green leaf area of the second-from-top leaf (F-1) [6, 19]: 84 % leaf area | green leaf area of the third-from-top leaf (F-2) [6, 19]: 54 % leaf area | green leaf area of the flag leaf (F) [6, 20]: 85 % leaf area | green leaf area of the second-from-top leaf (F-1) [6, 20]: 56 % leaf area | green leaf area of the third-from-top leaf (F-2) [6, 20]: 29 % leaf area | green leaf area of the flag leaf (F) [6, 21]: 60 % leaf area | green leaf area of the second-from-top leaf (F-1) [6, 21]: 30 % leaf area | green leaf area of the third-from-top leaf (F-2) [6, 21]: 18 % leaf area | green leaf area of the flag leaf (F) [6, 22]: 37 % leaf area | green leaf area of the second-from-top leaf (F-1) [6, 22]: 18 % leaf area | green leaf area of the third-from-top leaf (F-2) [6, 22]: 7 % leaf area | green leaf area of the flag leaf (F) [6, 23]: 12 % leaf area | green leaf area of the second-from-top leaf (F-1) [6, 23]: 6 % leaf area | green leaf area of the third-from-top leaf (F-2) [6, 23]: 0 % leaf area | Ears/m^2 [7]: 409 | Harvest Index [7]: 58.1 | Straw [7]: 581 g m^−2 | TKM (thousand-kernel mass) [7]: 45.8 g | Yield [7]: 8.2 t ha^−1 | Chlorophyll content ([8]; BBCH 75 (mature milk), leaf F): 1924 µg/g | Chlorophyll content ([8]; BBCH 75 (mature milk), leaf F-1): 1671 µg/g | Chlorophyll content ([8]; BBCH 75 (mature milk), leaf F-2): 1126 µg/g | Chlorophyll content ([8]; BBCH 85 (mature dough), leaf F): 630 µg/g | Chlorophyll content ([8]; BBCH 85 (mature dough), leaf F-1): 534 µg/g | Chlorophyll content ([8]; BBCH 85 (mature dough), leaf F-2): 415 µg/g | Temperature (as a measure of the transpiration activity) ([9]; BBCH 75, ear): 23.1 °C | Temperature (as a measure of the transpiration activity) ([9]; BBCH 75, leaf): 22.3 °C | Temperature (as a measure of the transpiration activity) ([9]; BBCH 80, ear): 18.9 °C | Temperature (as a measure of the transpiration activity) ([9]; BBCH 80, leaf): 16.5 °C | Temperature (as a measure of the transpiration activity) ([9]; BBCH 85, ear): 24.8 °C | Temperature (as a measure of the transpiration activity) ([9]; BBCH 85, leaf): 23.4 °C | Temperature (as a measure of the transpiration activity) ([9]; BBCH 90, ear): 23.9 °C | Temperature (as a measure of the transpiration activity) ([9]; BBCH 90, lear (so in the source)): 22.7 °C
